Marks after values point to notes of the source that are not given here. Values belong to the molecule of their own block, whether it stands above or below them.
Assays:
hepatocytes = assay: Hepatic glucose production in vitro in isolated hepatocytes (Table IV); type: cell-based, Wistar rats; conditions: for inhibition of hepatic glucose production in vitro (in words): isolated rat hepatocytes
Method: The following two methods were used:
(§1) 1) The hepatocytes are cultured for 16 to 18 hours in DMEM medium in the presence of AMP cyclase/dexamethasone at respective concentrations of 5×10^−5 M and 5×10^−7 M, with preincubation of the products at the test doses. After washing in pH 7.4 PBS buffer, the cells are incubated for three hours at 37° C. in a Krebs/AMPc/DEX buffer at the abovementioned concentrations. 0.1 μM insulin is used as reference substance. Two identical experiments are performed (Table III-1).
(§2) After washing in pH 7.4 PBS buffer, the cells are incubated for two hours at 37° C. in a Krebs buffer free of glucose and of insulin, containing lactate/pyruvate (10/1 mM) in the presence or absence of the test compounds. 10 μM MICA (5-methoxyindole-2-carboxylic acid) is used as reference substance. Two identical experiments are performed (Table III-2).
The protein assay is performed on the rest of the incubation medium via the Lowry method (BIO-RAD Dc protein assay, BIO-RAD 5000116).
(§3) The results are expressed as nmoles of glucose produced per […] of proteins. The statistical test used is the t test.

[1] = tested on: perfused isolated pancreases from N0 STZ diabetic rats; assay: Secretion of insulin and glucagon in perfused isolated pancreases from N0 STZ diabetic rats; type: cell-based; conditions: perfused diabetic rat pancreas; absence of glucose, then 16.5 mM glucose; glucose-dependent
From the text: The results are expressed as the mean ±SEM (standard error of mean) of several experiments. The statistical test used is the Scheffé test.

primary hepatocytes [2] = assay: Hepatic glucose production stimulated by AMPc/DEX in primary hepatocytes (Table III-1); type: cell-based, Wistar rats
Method: (§4) The hepatocytes are isolated from the liver of Wistar rats fasted for 24 hours, according to the method described in Methods Cell Biol., 13 (1975), 29-83.
as §1
(§5) Quantification of the glucose is performed via a calorimetric method using glucose oxidase (IL test™ Glucose, Monarch 181633-80). The protein assay is performed on the rest of the incubation medium via the Lowry method (BIO-RAD Dc protein assay, BIO-RAD 5000116).
as §3

N0STZ rats = assay: Antidiabetic activity in N0STZ rats (glycaemia after oral treatment); type: in vivo, rat; conditions: for percentage change in the glycaemia relative to D0, D4 (20 mg) / percentage change in the glycaemia relative to D0, D4 (200 mg): four days of treatment; for percentage change in the glycaemia relative to D0, D1 (20 mg) / percentage change in the glycaemia relative to D0, D1 (200 mg): one day of treatment
Method: Study of the Antidiabetic Activity in N0STZ Rats
The antidiabetic activity of the compounds of the formulae (I) and (II) orally was determined on an experimental model of non-insulin-dependent diabetes, induced in rats with steptozotocin.
The model of non-insulin-dependent diabetes is obtained in the rats by means of a neonatal injection (on the day of birth) of steptozotocin.
The diabetic rats used are eight weeks old. The animals are housed, from the day of birth to the day of the experiment, in an animal house at a regulated temperature of 21 to 22° C. and subjected to a fixed cycle of light (from 7 a.m. to 7 p.m.) and darkness (from 7 p.m. to 7 a.m.). Their food consisted of a maintenance diet, and water and food were given “ad libitum”, with the exception of fasting two hours before the tests, during which period the food is removed (post-absorptive state).
The rats are treated orally for one (D1) or four (D4) days with the test product. Two hours after the final administration of the product and 30 minutes after anaesthetising the animals with pentobarbital sodium (Nembutal®), a 300 μL blood sample is taken from the end of the tail.
The results presented below are expressed as a percentage change in the glycaemia on D1 and D4 (number of days of treatment) relative to D0 (before the treatment).

primary hepatocytes [3] = assay: Hepatic glucose production, basal Lact/Pyr 2 hours, in primary hepatocytes (Table III-2); type: cell-based, Wistar rats
Method: as §4
2) The hepatocytes are cultured for 16 to 18 hours in RPMI 1640 medium free of glucose but supplemented with 1% glutamine, 100 U/mL penicillin, […] streptomycin and 7×10^−5 M hydrocortisone hemisuccinate.
as §2, §5, §3

[4] = Rattus norvegicus, Hepatocyte, 10 μM
[5] = Rattus norvegicus, Hepatocyte, 100 μM

melting point: 143 to 146 °C
Compound: O=C(CC(SCc1ccccc1)C(=O)O)c1ccccc1 (stereo not shown) [Ih-8, 2-benzylthio-4-phenyl-4-oxobutanoic acid]

melting point: 137 to 141 °C
Compound: COc1ccc(C(=O)CC(Sc2ccc(C)cc2)C(=O)O)cc1 (stereo not shown) [Ih-20, 2-(4′-methylphenylthio)-4-(4′-methoxyphenyl)-4-oxobutanoic acid]

melting point: 121 to 125 °C
Compound: COc1ccc(C(=O)CC(Sc2ccccc2)C(=O)O)cc1 (stereo not shown) [Ih-17, 2-phenylthio-4-(4′-methoxyphenyl)-4-oxobutanoic acid]

melting point: 151 to 153 °C
Compound: Cc1ccc(SC(CC(=O)c2ccc(Cl)cc2)C(=O)O)cc1 (stereo not shown) [Ih-28, 2-(4′-methylphenylthio)-4-(4′-chlorophenyl)-4-oxobutanoic acid]

melting point: 117 to 119 °C
Compound: COc1ccc(SC(CC(=O)c2ccc(Cl)cc2)C(=O)O)cc1 (stereo not shown) [Ih-29, 2-(4′-methoxyphenylthio)-4-(4′-chlorophenyl)-4-oxobutanoic acid]

melting point: 140 to 142 °C
Compound: O=C(CC(Sc1ccc(Cl)cc1)C(=O)O)c1ccccc1 (stereo not shown) [Ih-4, 2-(4′-chlorophenylthio)-4-phenyl-4-oxobutanoic acid]

Compound: O=C(C[C@@H](Cc1ccccc1)C(=O)O)c1ccc(Cl)c(Cl)c1 (racemic) [Compound j, (R,S)-2-benzyl-4-(3′,4′-dichlorophenyl)-4-oxobutanoic acid]
inhibition of hepatic glucose production (hepatocytes; 1 μM): 30** %
inhibition of hepatic glucose production (hepatocytes; 10 μM): 51** %
inhibition of hepatic glucose production (hepatocytes; 100 μM): 65** %
inhibition of hepatic glucose production in vitro (in words) (hepatocytes): powerful inhibitors of hepatic glucose production in vitro

Compound: N[C@@H](Cc1c[nH]c2ccccc12)C(=O)O [Tryptophan]
inhibition at 10 µM (hepatocytes; [4]): 12%
inhibition at 100 µM (hepatocytes; [5]): 81%
inhibition of hepatic glucose production in vitro (in words) (hepatocytes): powerful inhibitors of hepatic glucose production in vitro
glucagon secretion (in words) [1]: stimulates glucagon secretion in a glucose-dependent manner
insulin secretion (in words) [1]: stimulates insulin secretion in a glucose-dependent manner

melting point: 154 to 156 °C
Compound: O=C(CC(C(=O)O)c1ccc(Cl)cc1)c1ccc(Cl)cc1 (stereo not shown) [Ih-27, 2-(4′-chlorophenyl)-4-(4′-chlorophenyl)-4-oxobutanoic acid]

Compound: Nc1ccccc1C(=O)CC(N)C(=O)O (stereo not shown) [Kynurenine]
inhibition at 1 µM (hepatocytes; Rattus norvegicus, Hepatocyte, 1 μM): 2%
inhibition at 10 µM (hepatocytes; [4]): 4%
inhibition at 100 µM (hepatocytes; [5]): 25%
inhibition at 1000 µM (hepatocytes; Rattus norvegicus, Hepatocyte, 1000 μM): 78%
inhibition of hepatic glucose production in vitro (in words) (hepatocytes): powerful inhibitors of hepatic glucose production in vitro
glucagon secretion (in words) [1]: stimulated
insulin secretion (in words) [1]: stimulated

melting point: 132 to 135 °C
Compound: O=C(CC(Sc1ccccc1)C(=O)O)c1ccccc1 (stereo not shown) [Ih-2, 2-phenylthio-4-phenyl-4-oxobutanoic acid]

Compound: COc1ccc2[nH]c(C(=O)O)cc2c1 [MICA, 5-methoxyindole-2-carboxylic acid]
inhibition at 10 µM (hepatocytes; [4]): 67%

melting point: 120 to 122 °C
Compound: COc1ccc(C(=O)CC(SC2CCCCC2)C(=O)O)cc1 (stereo not shown) [Ih-23, 2-cyclohexylthio-4-(4′-methoxyphenyl)-4-oxobutanoic acid]

melting point: 120 to 121 °C
Compound: COc1ccc(C(=O)CC(Sc2ccc(Cl)cc2)C(=O)O)cc1 (stereo not shown) [Ih-19, 2-(4′-chlorophenylthio)-4-(4′-methoxyphenyl)-4-oxobutanoic acid]

melting point: 108 to 110 °C
Compound: COc1ccc(C(=O)CC(Sc2ccc(F)cc2)C(=O)O)cc1 (stereo not shown) [Ih-18, 2-(4′-fluorophenylthio)-4-(4′-methoxyphenyl)-4-oxobutanoic acid]

melting point: 132 to 134 °C
Compound: Cc1ccc(SC(CC(=O)c2ccccc2)C(=O)O)cc1 (stereo not shown) [Ih-5, 2-(4′-methylphenylthio)-4-phenyl-4-oxobutanoic acid]

melting point: 105 to 109 °C
Compound: COc1ccc(C(=O)CC(SCc2ccccc2)C(=O)O)cc1 (stereo not shown) [Ih-24, 2-benzylthio-4-(4′-methoxyphenyl)-4-oxobutanoic acid]

melting point: 116 to 118 °C
Compound: COc1ccc(SC(CC(=O)c2ccccc2)C(=O)O)cc1 (stereo not shown) [Ih-6, 2-(4′-methoxyphenylthio)-4-phenyl-4-oxobutanoic acid]

Compound: O=C(O)c1cc(=O)c2ccccc2[nH]1 [Kynurenic acid]
glucagon secretion (in words) [1]: stimulates
insulin secretion (in words) [1]: stimulates the secretion of insulin

melting point: 166 to 169 °C
Compound: O=C(CC(Sc1ccccc1)C(=O)O)c1ccc(Cl)cc1 (stereo not shown) [Ih-25, 2-phenylthio-4-(4′-chlorophenyl)-4-oxobutanoic acid]

melting point: 117 °C
Compound: O=C(CC(SC1CCCCC1)C(=O)O)c1ccccc1 (stereo not shown) [Ih-7, 2-cyclohexylthio-4-phenyl-4-oxobutanoic acid]

melting point: 140 to 141 °C
Compound: O=C(CC(Sc1ccc(F)cc1)C(=O)O)c1ccc(Cl)cc1 (stereo not shown) [Ih-26, 2-(4′-fluorophenylthio)-4-(4′-chlorophenyl)-4-oxobutanoic acid]

Compound: O=C(CC(Sc1ccc2ccccc2c1)C(=O)O)c1ccccc1 (stereo not shown) [Ih-1, 2-(2′-naphthylthio)-4-phenyl-4-oxobutanoic acid]
inhibition of hepatic glucose production in vitro (in words) (hepatocytes): powerful inhibitors of hepatic glucose production in vitro
HGP % of control (primary hepatocytes [2]; 1 μM): 103 % of control
HGP % of control (primary hepatocytes [2]; 10 μM): 83 % of control
HGP % of control (primary hepatocytes [2]; 100 μM): 15 % of control
percentage change in the glycaemia relative to D0, D4 (20 mg) (N0STZ rats): −12%
percentage change in the glycaemia relative to D0, D4 (200 mg) (N0STZ rats): −21%
percentage change in the glycaemia relative to D0, D1 (20 mg) (N0STZ rats): 7%
percentage change in the glycaemia relative to D0, D1 (200 mg) (N0STZ rats): 10%
HGP % of control (primary hepatocytes [3]; 1 μM): 110 % of control
HGP % of control (primary hepatocytes [3]; 10 μM): 127 % of control
HGP % of control (primary hepatocytes [3]; 100 μM): 75 % of control

Compound: O=C(CC(Sc1ccc(F)cc1)C(=O)O)c1ccccc1 (stereo not shown) [Ih-3, 2-(4′-fluorophenylthio)-4-phenyl-4-oxobutanoic acid]
percentage change in the glycaemia relative to D0, D4 (20 mg) (N0STZ rats): −19%
percentage change in the glycaemia relative to D0, D4 (200 mg) (N0STZ rats): −12%
percentage change in the glycaemia relative to D0, D1 (20 mg) (N0STZ rats): −3%
percentage change in the glycaemia relative to D0, D1 (200 mg) (N0STZ rats): 7%

melting point: 137 to 140 °C
Compound: COc1ccc(SC(CC(=O)c2ccc(OC)cc2)C(=O)O)cc1 (stereo not shown) [Ih-21, 2-(4′-methoxyphenylthio)-4-(4′-methoxyphenyl)-4-oxobutanoic acid]

From patent US20060052456A1, “Kynurenine 3-hydroxylase inhibitors for the treatment of diabetes by increasing the number of islets of langerhans cells” (MERCK PATENT GMBH, priority 2003, published 2006)
